Laboratory results reported in US8410309B2, “Phenoxy carboxylic acid compounds and compositions for delivering active agents” (Emisphere Technologies, Inc., priority 1999, dated 2013).
“And” between values parts separate entries of the source, which are not always exact repeats. Identical values can stand only once. Blank lines part the entries; values can stand above or below the molecule they belong to.

How the values were obtained:
[1] = Insulin oral delivery, serum human insulin by ELISA; details: rats, insulin 3 mg/kg
Experimental: Oral dosing (PO) compositions of delivery agent compound and human zinc insulin (minimum 26 IU/mg available from Calbiochem—Novabiochem Corp, La Jolla, Calif.) were prepared in deionized water. […] The pH was adjusted to about 7 to 8.5 with NaOH or HCl. […] The final delivery agent compound dose, insulin dose and dose volume amounts are listed below in Table 8.
(§1) The typical dosing and sampling protocols were as follows.
Serum insulin levels were determined with an Insulin ELISA Test Kit (Kit # DSL-10-1600 from Diagnostic Systems Laboratories, Inc., Webster, Tex.), modifying the standard protocol in order to optimize the sensitivity and linear range of the standard curve for the volumes and concentrations of the samples used in the present protocol. […] The five values for each time point were averaged and the results plotted as serum insulin concentration versus time.

[2] = Insulin pulmonary delivery, serum insulin by ELISA, ratio to insulin-alone control; format: in vivo, Sprague-Dawley rats; details: rats
Experimental: Dosing compositions of delivery agent compound and human insulin in water were prepared. Typically, to 1.5 mg of delivery agent compound was added deionized water to bring the volume to 1.0 ml, and the solution was vortexed. […] The pH was adjusted to between about 7.0 to 8.5 with NaOH or HCl. […] The final delivery agent compound dose, insulin dose and volume dose amounts are listed below in Table 9.
The typical dosing and sampling protocols were as follows. […] A control group of five animals was dosed insulin alone. A tracheal instillator for rodents, equipped with light (available from Penn Century, Inc., Pittsburgh, Pa.) was filled with dosing solution and inserted down the throat until the needle went into the trachea (confirmed visually). The dosing solution was administered by pressing the plunger.
Blood samples from each animal were collected serially from the tail artery, typically at 5, 15, 30, 60 and 120 minutes after dosing. […] The ratio of the area under the curve (AUC) for the test group versus that of the control group is reported below. The ratio of the maximum serum insulin concentration (Cmax) for the test group versus that of the control group is also reported below.

[3] = Recombinant human growth hormone (rhGH) oral delivery, serum rhGH by immunoassay; details: oral gavage, rats; delivery agent compound 200 mg/kg, rhGH 3 mg/kg, volume dose 1 ml
[4] = Salmon calcitonin (sCT) oral delivery, serum sCT by EIA; details: rats, delivery agent compound dose 150 mg/kg, sCT dose 30 μg/kg
[5] = Daptomycin oral delivery, plasma daptomycin by HPLC; format: in vivo, Sprague-Dawley rats; details: rats, delivery agent compound dose 200 mg/kg, daptomycin dose 50 mg/kg, volume dose 1 mL/kg
Experimental: Dosing solutions containing a delivery agent compound and daptomycin (Cubist Pharmaceuticals, Cambridge, Mass.) were prepared in 0.9% normal saline. […] This mixture was vortexed and placed in a sonicator (about 37° C.). The pH was adjusted to about 7.0-7.5 with aqueous HCl or NaOH. […] The mixture was vortexed to produce a uniform solution, also using sonication if necessary. The delivery agent compound solution was mixed with daptomycin from a stock solution (200 mg daptomycin/mL in 0.9% normal saline and the pH adjusted, if necessary, to between 6.0-7.0 with NaOH or HCl). The stock solution was stored frozen (−20° C.) wrapped in foil, then thawed and warmed gradually to about 25° C. before using. The delivery agent-daptomycin mixture was vortexed at low speed to produce a uniform solution. The pH was adjusted to about 7.0-7.5 with aqueous NaOH. The solution was then diluted with 0.9% normal saline to the desired volume (usually 2.0 ml) and concentration and stored wrapped in foil before use.
as §1
Heparinized rat blood samples were collected via the ventral tail artery, typically at 0.25, 0.5, 0.75, 1.0, 2.0, and 4.0 hours after dosing, and stored on ice. Blood samples were then spun (centrifuged) at 11,500 rpm for 4 minutes at 4° C. to obtain the plasma (supernatant), which was stored at −70° C. The plasma daptomycin concentrations were measured by isocratic reversed phase HPLC, keeping samples at 4° C. during analysis. Blank plasma studies show baseline values of zero.
Daptomycin blood concentrations results from the individual animals in each dosage group were averaged for each time point.

[6] = Interferon oral delivery, serum IFN by immunoassay; format: in vivo, Sprague-Dawley rats; details: rats, delivery agent compound 200 mg/kg, IFN 1 mg/kg, 1 ml/kg
Experimental: Dosing solutions of delivery agent compound and human interferon (IFN) were prepared in deionized water. […] This mixture was vortexed and placed in a sonicator (about 37° C.). The pH was adjusted to about 7.0 to 8.5 with aqueous NaOH. The mixture was vortexed to produce a uniform suspension or solution, also using sonication and heat if necessary.
as §1
Serum IFN concentrations were quantified using Cytoscreen Immunoassay Kit for human IFN-alpha (catalog # KHC4012 from Biosource International, Camarillo, Calif.). Previous studies indicated baseline values of about zero.

[7] = Low molecular weight heparin (LMWH) oral/intracolonic delivery, plasma LMWH by anti-Factor Xa assay; format: in vivo, Sprague-Dawley rats; details: IC, rats, LMWH 750 IU/kg, 1 ml/kg
Experimental: Oral dosing (PO) and/or intracolonic (IC) compositions containing a delivery agent compound and low molecular weight heparin (LMWH) were prepared in 25% aqueous propylene glycol. […] Typically, the delivery agent compound and LMWH (Parnaparin, 91 IU/mg average molecular weight about 5,000, available from Opocrin, Modena, Italy) (typically 90-105 IU/mg, average molecular weight about 5,000) were mixed by vortex as dry powders. This dry mixture was dissolved in 25% v/v aqueous propylene glycol, vortexed, and placed in a sonicator (37° C.) to produce a clear solution. The pH was adjusted to about 7 (6.5-8.5) with 2N aqueous NaOH. The dosing solution was sonicated to produce a clear solution. The final volume was adjusted to 3.0 ml.
(§2) The typical dosing and sampling protocols were as follows. […] The dosing solution was expressed slowly into the colon by pressing the syringe plunger.
Citrated blood samples were collected by cardiac puncture following the administration of ketamine (88 mg/kg), typically at 0.5, 1.0, 2.0, 3.0 and 4.0 hours after dosing. LMWH absorption was verified by an increase in plasma LMWH measured by the anti-Factor Xa assay CHROMOSTRATE™ Heparin anti-Xa assay (available from Organon Teknika Corporation, Durham, N.C.). […] The peak of these mean plasma LMWH concentrations is reported below in Table 5.

[8] = Heparin oral/intracolonic delivery, clotting time by activated partial thromboplastin time (APTT); format: in vivo, Sprague-Dawley rats; details: IC (intracolonic), rats; delivery agent compound 50 mg/kg, heparin 25 mg/kg, volume dose 1 ml; baseline about 20 seconds
Experimental: Oral gavage (PO) and/or intracolonic (IC) dosing solutions containing a delivery agent compound and heparin sodium USP were prepared in 25% aqueous propylene glycol. […] This dry mixture was dissolved in 25% v/v aqueous propylene glycol, vortexed, and placed in a sonicator (about 37° C.). The pH was adjusted to about 7 (6.5 to 8.5) with aqueous NaOH (2N). The dosing solution was sonicated to produce a clear solution. The final volume was adjusted to about 3.0 ml.
as §2
Citrated blood samples were collected by cardiac puncture following the administration of ketamine (88 mg/kg), typically at 0.25, 0.5, 1.0 and 1.5 hours after dosing. Heparin absorption was verified by an increase in clotting time measured by the activated partial thromboplastin time (APTT) according to the method of Henry, J. B., Clinical Diagnosis and Management by Laboratory Methods, Philadelphia, Pa., W.B. Saunders (1979). Previous studies indicated baseline values of about 20 seconds.

[9] = delivery agent compound 100 mg/kg, 1 ml/kg
[10] = Table 9 pulmonary delivery, volume 1 ml/kg, delivery agent compound 3 mg/kg, insulin 100 mg/kg (so in the source)
[11] = pulmonary, volume 0.4 ml/kg, delivery agent compound 0.03 mg/kg, insulin 0.3 mg/kg (so in the source)

SMILES: O=C(O)C=Cc1ccccc1OCCCCCCCC(=O)O [Compound 25]
- Mean Peak Serum [INS] ± SD [1, 9]: 47.2162 ± 31.43 μU/ml
- Cmax (serum insulin) [2, 10]: 47.2162 μU/ml
- Mean Peak Serum [rhGH] [3]: 0 ng/mL
- Mean Peak Serum sCT (pg/ml ± SD) (SE) ([4]; dose volume 1 (ml)): 53 ± 77 pg/mL

SMILES: O=C(O)c1ccc(COc2ccc(O)cc2)cc1 [Compound 67]
- Mean Peak Serum [IFN] ± SD [6]: 3.4451 ± 4.5 ng/mL
- Cmax (serum insulin) ([2]; pulmonary, volume 0.4 ml/kg, delivery agent compound 0.03 mg/kg, insulin 0.06 mg/kg (so in the source)): 82.23 ± 47.16 μU/ml and 70.85 ± 36.24 μU/ml
- Cmax (serum insulin) ([2]; pulmonary, volume 0.4 ml/kg, delivery agent compound 0.03 mg/kg, insulin 0.15 mg/kg (so in the source)): 84.40 ± 15.06 μU/ml and 91.20 ± 37.30 μU/ml
- Cmax (serum insulin) [2, 11]: 66.04 ± 47.42 μU/ml and 92.14 ± 36.17 μU/ml and 115.04 ± 68.23 μU/ml
- Mean Peak Serum [rhGH] [3]: 15 ng/mL and 14.7 ng/mL
- Mean Peak Serum sCT (pg/ml ± SD) (SE) ([4]; dose volume 1 (ml), 150 mg/kg): 142 ± 142 pg/mL and 256 ± 158 pg/mL
- Mean Peak Serum sCT (pg/ml ± SD) (SE) ([4]; dose volume 2 (ml)): 681 ± 419 pg/mL

SMILES: CC(=O)c1ccccc1OCCCCC(=O)O [Compound 10]
- Mean Peak Plasma LMWH Concentration ± SD ([7]; delivery agent compound 50 mg/kg): 0.088 ± 0.121 IU/ml
- Mean Peak APTT ± SD [8]: 81.8 ± 7 s and 63.5 s
- Mean Peak Serum [INS] ± SD [1, 9]: 63.5884 ± 129.23 μU/ml
- Cmax (serum insulin) [2, 10]: 63.5884 μU/ml
- Mean Peak Serum [rhGH] [3]: 34.3 ng/mL

SMILES: CC(=O)c1ccccc1OCc1ccc(C(=O)O)cc1 [Compound 1]
- Mean Peak Plasma LMWH Concentration ± SD ([7]; delivery agent compound 25 mg/kg): 1.022 ± 0.432 IU/ml
- Mean Peak Plasma LMWH Concentration ± SD ([7]; delivery agent compound 50 mg/kg, 50 mg/kg): 1.734 ± 0.192 IU/ml and 1.038 ± 0.338 IU/ml
- Mean Peak APTT ± SD [8]: 130.84 ± 118.18 s and 231.34 s
- Mean Peak Serum [IFN] ± SD [6]: 17.357 ± 38 ng/mL
- Mean Peak Serum [INS] ± SD [1, 9]: 74.237 ± 1144.49 μU/ml
- Cmax (serum insulin) [2, 10]: 74.237 μU/ml
- Mean Peak Serum sCT (pg/ml ± SD) (SE) ([4]; dose volume 1 (ml), 150 mg/kg): 317 ± 405 pg/mL and 398 ± 237 pg/mL and 410 ± 471 pg/mL

Other lines, results leading:

- Mean plasma Cmax [daptomycin] ± SD [5]: 8590 ± 4210 ng/mL
- Mean Peak Serum [INS] ± SD ([1]; delivery agent compound 200 mg/kg, 1 ml/kg): 3322 ± 2721 μU/ml
SMILES: CC(=O)c1cc(O)ccc1OCCCCCCCC(=O)O [Compound 57, (4-hydroxy-2-acetylphenyl)-8-oxyoctanoic acid]

- Mean Peak Serum [INS] ± SD ([1]; delivery agent compound 100 mg/kg, 0.5 ml/kg): 97.49 ± 134.1 μU/ml
- Mean Ratio of AUC for insulin + compound versus AUC for insulin alone [2, 11]: 0.76
- Mean Peak Serum sCT (pg/ml ± SD) (SE) ([4]; dose volume 1 (ml)): 188 ± 184 pg/mL
SMILES: O=C(O)CCCCCCCCCOc1cccc(O)c1 [Compound 44]

- Mean Peak Serum [INS] ± SD [1, 9]: 7.843 ± 8.527 μU/ml
- Cmax (serum insulin) [2, 10]: 7.843 μU/ml
SMILES: CCC(=O)c1ccc(OCCCCCCCC(=O)O)cc1 [Compound 63]
